Reference: EP4050002A1, “ANTI-PROLIFERATIVE AGENTS” (First Health Pharmaceuticals B.V., priority 2021, dated 2022)
Where two headings read alike, the source gives them in different places.

Test: Tissue distribution in xenograft mice (conditions #1, #1A, #1B)
Type: in vivo, male FOXN1nu/nu nude mice
Details: for Kp at 4 h: mouse, brain, ip, read-out: Brain to plasma
Description: The pharmacokinetic study was performed in male Swiss albino mice from Hylasco Biotechnology Pvt. Ltd. (A Charles River technology Licensee). The tissue distribution study was performed in male Swiss albino mice and in male FOXN1^nu/nu nude mice (Envigo spa). The efficacy study was performed in male FOXN1^nu/nu nude mice.
At study closure, animals were sacrificed and tumor and tissues removed for further studies of distribution and morphology. Mice from the efficacy study were anesthetized using gaseous anesthesia and blood samples collected in Li-Heparin containing tubes by intracardiac puncture, stored on ice, centrifuged within 15 minutes to separate plasma at 1540 ref (5000 rpm), at 4°C for 10 minutes; plasma was separated and transferred to new tubes. After blood collection, tissues for bio-analyses were separated, washed in PBS, dried and frozen at -80±10°C until homogenization.
The levels of compound in the tissues were quantified by LC-MS/MS as follows.
UHPLC-MS/MS analysis was performed on a Q-Exactive Plus (ThermoFisher Scientific) mass spectrometer coupled with an UHPLC Ultimate 3000SD (ThermoFisher Scientific).
Chromatographic separation of the analytes was performed on an Acquity UPLC BEH Shield RP18 column ([…], 2.1 mm x 50 mm, […]) with a column temperature at 40°C.
The flow rate was 250 µl/min. The mobile phase was a gradient of a mixture of 10 mM ammonium acetate with 0.1% formic acid (phase A) and Acetonitrile:Methanol (50:50 v/v) as phase B. The gradient profile used began with an elution of (A:B) 70:30 v/v for 1 min, followed by a gradual decrease of A to (A:B) 5:95 v/v until 5 min, a constant gradient for 1 min of 95% of B, then a gradual decrease of B to the initial condition until 7 min and then a final conditioning of the column for about 4 min in order to equilibrate for the next injection.
The electrospray ionization source (ESI) was operated in positive mode. Parallel reaction monitoring (PRM) methods was applied to quantify compound 5. The selected transitions m/z 414.20-243.10 for compound 5 and m/z 360.18- 243.12 for the internal standard (compound 4) were considered. Each sample was assayed in duplicate.
Preparation of plasma samples: Mouse plasma (10 µl) was placed into a tube containing 188 µl of a chilled Acetonitrile:Methanol solution (50:50 v/v) in order to precipitate proteins. Each sample was spiked with a fixed concentration (200 nM) of compound 4 used as internal standard. After 1 min of vortex, the mixture was centrifuged at 10,000 x g for 15 minutes at 4 °C to separate the protein material from the supernatant. The last one of each sample was transferred to a new sample tube and the solvent was evaporated under nitrogen stream. The dried material was re-suspended in 100 µl of mobile phase. The resulting solution was then analyzed by UHPLC-MS/MS without further modifications.
Preparation of tissue samples was as follows: the tissues of interest were washed briefly with chilled water to remove traces of blood, if necessary, and cut into small pieces, keeping them on ice during all the operations. Then the samples were transferred to a tube and homogenized in purified water using the homogenizer TissueRuptor of Qiagen. In general, 300 µl of purified water was added to 50 mg of tissue. The homogenized samples were centrifuged at 10,000 x g for 15 minutes at 4°C to pellet cell debris, and then the supernatant were transferred to a clean tube in order to perform protein precipitation using a chilled solution of Acetonitrile:Methanol (50:50 v/v) and vortexed for 1 min. Before protein precipitation a fixed concentration (200 nM) of internal standard (Compound 4) was added in every sample. After centrifugation, the supernatant was separated from protein pellet and dried under nitrogen stream. 50 µl of mobile phase was used to re-suspend each dried sample. […]

[1] = #1: single I.P. administration, 45 mg/Kg, withdrawal 4 hours after administration
[2] = #1A: two I.P. administration, 45 mg/Kg, at distance of 48 hours, withdrawal 4 hours after last administration
[3] = #1B: 6 weeks of repeated I.P. administration, 45 mg/kg, every 48 hours, withdrawal 4 hours after last administration

Structure (SMILES): CCCCc1cn(-c2ccc(-c3nnc(-c4ccccc4C(F)(F)F)o3)cc2)nn1 [Compound 5]
- Adipose to plasma [1]: 14.3
- Breast to plasma [1]: 42.9
- Intestine to plasma [1]: 5.8
- Kidney to plasma [1]: 23.1
- Liver to plasma [1]: 7.3
- Lung to plasma [1]: 12.6
- Lymph node to plasma [1]: 17.9
- Plasma [1]: 2099.8 ng/mL
- Spleen to plasma [1]: 26.1
- Tumor to plasma [1]: 11.3
- Adipose to plasma [2]: 31.8
- Breast to plasma [2]: 10.9
- Intestine to plasma [2]: 4.2
- Kidney to plasma [2]: 21.6
- Liver to plasma [2]: 12.9
- Lung to plasma [2]: 10.3
- Lymph node to plasma [2]: 137.7
- Plasma [2]: 2188.6 ng/mL
- Spleen to plasma [2]: 23.3
- Tumor to plasma [2]: 39.9
- Adipose to plasma [3]: 233.3
- Breast to plasma [3]: 18.5
- Intestine to plasma [3]: 10.9
- Kidney to plasma [3]: 18.3
- Liver to plasma [3]: 12.4
- Lung to plasma [3]: 9.6
- Lymph node to plasma [3]: 27.5
- Plasma [3]: 4658.9 ng/mL
- Spleen to plasma [3]: 21.4
- Tumor to plasma [3]: 14.9
- Kp at 4 h (45 mg/kg, #1: single I.P. administration, 45 mg/Kg, withdrawal 4 hours after administration): 0.5
- Kp at 4 h (45 mg/kg, #1A: two I.P. administration, 45 mg/Kg, at distance of 48 hours, withdrawal 4 hours after last administration): 1.1
- Kp at 4 h (45 mg/kg, #1B: 6 weeks of repeated I.P. administration, 45 mg/kg, every 48 hours, withdrawal 4 hours after last administration): 0.7
